Results from ChEMBL document CHEMBL1909046, “DrugMatrix in vitro pharmacology data”.

Target: T1, Cytochrome P450 2A6 (Homo sapiens, UniProt P11509); further: in other assays of this panel Not Active means under 50% inhibition at 10 µM
T1 sequence (P11509 whole entry): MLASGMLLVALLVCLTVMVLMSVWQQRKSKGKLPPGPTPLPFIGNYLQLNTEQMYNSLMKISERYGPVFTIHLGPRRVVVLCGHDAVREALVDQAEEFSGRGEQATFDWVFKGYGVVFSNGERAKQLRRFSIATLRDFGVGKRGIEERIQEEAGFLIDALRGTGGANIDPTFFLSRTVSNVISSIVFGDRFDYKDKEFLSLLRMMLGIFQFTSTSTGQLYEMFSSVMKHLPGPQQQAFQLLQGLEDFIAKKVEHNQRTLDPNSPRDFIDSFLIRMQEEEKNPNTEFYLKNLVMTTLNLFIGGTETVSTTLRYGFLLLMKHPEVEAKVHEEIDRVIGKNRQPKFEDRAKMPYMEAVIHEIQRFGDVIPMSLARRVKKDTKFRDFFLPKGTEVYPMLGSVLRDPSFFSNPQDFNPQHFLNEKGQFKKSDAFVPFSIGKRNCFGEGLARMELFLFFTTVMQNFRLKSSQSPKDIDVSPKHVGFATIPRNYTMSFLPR
Experiment: not given
Conditions: bti-tn-5b1-4

Compound	IC50	Ki
CCCCC(=O)N(Cc1ccc(-c2ccccc2-c2nnn[nH]2)cc1)[C@H](C(=O)O)C(C)C	Not Active	Not Active
O=C(O)COc1ccc(C(=O)c2cccs2)c(Cl)c1Cl	Not Active	Not Active
CN1[C@@H]2CC[C@H]1C[C@@H](OC(c1ccccc1)c1ccccc1)C2 [BENZTROPINE]	Not Active	Not Active
C[C@@](Cc1ccc(O)c(O)c1)(NN)C(=O)O.O [CARBIDOPA]	Not Active	Not Active
CN1CCN(C2=Nc3cc(Cl)ccc3Nc3ccccc32)CC1 [CLOZAPINE]	Not Active	Not Active
CC(C)NC[C@@H](O)COc1cccc2ccccc12 [DEXPROPRANOLOL]	Not Active	Not Active
CC(C)NC[C@H](O)COc1cccc2ccccc12 [LEVOPROPRANOLOL]	Not Active	Not Active
O=C(O)CCCCC1CCSS1 (stereo not drawn) [LIPOIC ACID, ALPHA]	Not Active	Not Active
CN(C)C(=O)C(CCN1CCC(O)(c2ccc(Cl)cc2)CC1)(c1ccccc1)c1ccccc1 [LOPERAMIDE]	Not Active	Not Active
Clc1ccc(COC(Cn2ccnc2)c2ccc(Cl)cc2Cl)c(Cl)c1 (configuration not stated) [MICONAZOLE]	Not Active	Not Active
OCCOCCN1CCN(C2=Nc3ccccc3Sc3ccccc32)CC1 [QUETIAPINE]	Not Active	Not Active
COC(=O)[C@H]1[C@H]2C[C@@H]3c4[nH]c5cc(OC)ccc5c4CCN3C[C@H]2C[C@@H](OC(=O)c2cc(OC)c(OC)c(OC)c2)[C@@H]1OC [RESERPINE]	Not Active	Not Active
O=C(O)c1ccccc1O [SALICYLIC ACID]	Not Active	Not Active
C[S+]([O-])c1ccc(-c2nc(-c3ccncc3)c(-c3ccc(F)cc3)[nH]2)cc1 (configuration not stated) [SB-203580]	Not Active	Not Active

Target: Vasopressin V1a receptor (Homo sapiens, UniProt P37288); further: in other assays of this panel Not Active means under 50% inhibition at 10 µM
Experiment: not given
Format: cell membranes, Membrane
Conditions: hek293

Vasopressin V1a receptor, sequence (P37288 whole entry): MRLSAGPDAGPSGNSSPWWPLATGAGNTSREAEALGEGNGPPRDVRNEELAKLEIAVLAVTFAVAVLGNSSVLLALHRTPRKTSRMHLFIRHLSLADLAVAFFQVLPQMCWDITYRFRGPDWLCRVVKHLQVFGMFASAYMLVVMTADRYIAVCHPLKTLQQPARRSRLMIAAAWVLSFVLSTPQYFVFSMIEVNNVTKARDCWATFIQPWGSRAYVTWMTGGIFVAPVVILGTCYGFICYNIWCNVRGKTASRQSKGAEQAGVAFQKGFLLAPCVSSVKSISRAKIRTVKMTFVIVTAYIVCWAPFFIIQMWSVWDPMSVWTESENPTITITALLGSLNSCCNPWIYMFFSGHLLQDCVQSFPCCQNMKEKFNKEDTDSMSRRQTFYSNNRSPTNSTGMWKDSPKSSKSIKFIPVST

Compound	IC50
CCCCC(=O)N(Cc1ccc(-c2ccccc2-c2nnn[nH]2)cc1)[C@H](C(=O)O)C(C)C	Not Active
O=C(O)COc1ccc(C(=O)c2cccs2)c(Cl)c1Cl	Not Active
CN1[C@@H]2CC[C@H]1C[C@@H](OC(c1ccccc1)c1ccccc1)C2 [BENZTROPINE]	Not Active
C[C@@](Cc1ccc(O)c(O)c1)(NN)C(=O)O.O [CARBIDOPA]	Not Active
CN1CCN(C2=Nc3cc(Cl)ccc3Nc3ccccc32)CC1 [CLOZAPINE]	Not Active
CC(C)NC[C@@H](O)COc1cccc2ccccc12 [DEXPROPRANOLOL]	Not Active
CC(C)NC[C@H](O)COc1cccc2ccccc12 [LEVOPROPRANOLOL]	Not Active
O=C(O)CCCCC1CCSS1 (stereo not drawn) [LIPOIC ACID, ALPHA]	Not Active
CN(C)C(=O)C(CCN1CCC(O)(c2ccc(Cl)cc2)CC1)(c1ccccc1)c1ccccc1 [LOPERAMIDE]	Not Active
Clc1ccc(COC(Cn2ccnc2)c2ccc(Cl)cc2Cl)c(Cl)c1 (configuration not stated) [MICONAZOLE]	Not Active
OCCOCCN1CCN(C2=Nc3ccccc3Sc3ccccc32)CC1 [QUETIAPINE]	Not Active
COC(=O)[C@H]1[C@H]2C[C@@H]3c4[nH]c5cc(OC)ccc5c4CCN3C[C@H]2C[C@@H](OC(=O)c2cc(OC)c(OC)c(OC)c2)[C@@H]1OC [RESERPINE]	Not Active
O=C(O)c1ccccc1O [SALICYLIC ACID]	Not Active
C[S+]([O-])c1ccc(-c2nc(-c3ccncc3)c(-c3ccc(F)cc3)[nH]2)cc1 (configuration not stated) [SB-203580]	Not Active

Target: Melanocortin receptor 5 (Homo sapiens, UniProt P33032); further: in other assays of this panel Not Active means under 50% inhibition at 10 µM
Experiment: not given
Format: cell membranes, HEK293, Membrane
Conditions: hek293

Melanocortin receptor 5, sequence (P33032 whole entry): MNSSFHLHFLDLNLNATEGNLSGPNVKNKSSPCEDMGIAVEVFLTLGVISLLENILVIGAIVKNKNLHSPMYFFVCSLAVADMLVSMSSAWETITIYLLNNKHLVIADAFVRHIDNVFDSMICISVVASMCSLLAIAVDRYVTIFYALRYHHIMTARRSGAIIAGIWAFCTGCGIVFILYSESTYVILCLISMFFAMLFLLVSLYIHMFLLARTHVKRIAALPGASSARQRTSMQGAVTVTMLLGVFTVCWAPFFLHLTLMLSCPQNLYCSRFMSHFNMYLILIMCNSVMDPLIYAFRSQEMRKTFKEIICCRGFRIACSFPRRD

Compound	IC50
CCCCC(=O)N(Cc1ccc(-c2ccccc2-c2nnn[nH]2)cc1)[C@H](C(=O)O)C(C)C	Not Active
O=C(O)COc1ccc(C(=O)c2cccs2)c(Cl)c1Cl	Not Active
CN1[C@@H]2CC[C@H]1C[C@@H](OC(c1ccccc1)c1ccccc1)C2 [BENZTROPINE]	Not Active
C[C@@](Cc1ccc(O)c(O)c1)(NN)C(=O)O.O [CARBIDOPA]	Not Active
CN1CCN(C2=Nc3cc(Cl)ccc3Nc3ccccc32)CC1 [CLOZAPINE]	Not Active
CC(C)NC[C@@H](O)COc1cccc2ccccc12 [DEXPROPRANOLOL]	Not Active
CC(C)NC[C@H](O)COc1cccc2ccccc12 [LEVOPROPRANOLOL]	Not Active
O=C(O)CCCCC1CCSS1 (stereo not drawn) [LIPOIC ACID, ALPHA]	Not Active
CN(C)C(=O)C(CCN1CCC(O)(c2ccc(Cl)cc2)CC1)(c1ccccc1)c1ccccc1 [LOPERAMIDE]	Not Active
OCCOCCN1CCN(C2=Nc3ccccc3Sc3ccccc32)CC1 [QUETIAPINE]	Not Active
COC(=O)[C@H]1[C@H]2C[C@@H]3c4[nH]c5cc(OC)ccc5c4CCN3C[C@H]2C[C@@H](OC(=O)c2cc(OC)c(OC)c(OC)c2)[C@@H]1OC [RESERPINE]	Not Active
O=C(O)c1ccccc1O [SALICYLIC ACID]	Not Active
C[S+]([O-])c1ccc(-c2nc(-c3ccncc3)c(-c3ccc(F)cc3)[nH]2)cc1 (configuration not stated) [SB-203580]	Not Active

Same assay, conditions: read-out: IC50

Compound	IC50 [µM]
Clc1ccc(COC(Cn2ccnc2)c2ccc(Cl)cc2Cl)c(Cl)c1 (configuration not stated) [MICONAZOLE]	22.6

Same assay, conditions: read-out: Ki

Compound	Ki [µM]
Clc1ccc(COC(Cn2ccnc2)c2ccc(Cl)cc2Cl)c(Cl)c1 (configuration not stated) [MICONAZOLE]	21.2

Target: T2, Type-2 angiotensin II receptor (Homo sapiens, UniProt P50052); further: in other assays of this panel Not Active means under 50% inhibition at 10 µM
T2 sequence (P50052 whole entry): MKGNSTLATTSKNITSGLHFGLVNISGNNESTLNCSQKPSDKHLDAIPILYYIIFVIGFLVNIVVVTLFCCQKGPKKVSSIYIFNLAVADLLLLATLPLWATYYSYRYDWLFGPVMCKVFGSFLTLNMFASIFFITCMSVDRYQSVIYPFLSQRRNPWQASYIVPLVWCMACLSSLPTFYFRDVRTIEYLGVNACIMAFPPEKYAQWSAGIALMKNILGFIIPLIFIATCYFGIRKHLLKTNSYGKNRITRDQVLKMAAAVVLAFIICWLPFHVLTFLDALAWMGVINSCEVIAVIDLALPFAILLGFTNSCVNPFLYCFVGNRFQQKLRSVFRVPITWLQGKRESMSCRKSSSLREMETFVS
Experiment: biochemical
Format: cell-based, CHO-K1
Conditions: cho-k1

Compound	IC50
CCCCC(=O)N(Cc1ccc(-c2ccccc2-c2nnn[nH]2)cc1)[C@H](C(=O)O)C(C)C	Not Active
O=C(O)COc1ccc(C(=O)c2cccs2)c(Cl)c1Cl	Not Active
CN1[C@@H]2CC[C@H]1C[C@@H](OC(c1ccccc1)c1ccccc1)C2 [BENZTROPINE]	Not Active
C[C@@](Cc1ccc(O)c(O)c1)(NN)C(=O)O.O [CARBIDOPA]	Not Active
CN1CCN(C2=Nc3cc(Cl)ccc3Nc3ccccc32)CC1 [CLOZAPINE]	Not Active
CC(C)NC[C@@H](O)COc1cccc2ccccc12 [DEXPROPRANOLOL]	Not Active
CC(C)NC[C@H](O)COc1cccc2ccccc12 [LEVOPROPRANOLOL]	Not Active
O=C(O)CCCCC1CCSS1 (stereo not drawn) [LIPOIC ACID, ALPHA]	Not Active
CN(C)C(=O)C(CCN1CCC(O)(c2ccc(Cl)cc2)CC1)(c1ccccc1)c1ccccc1 [LOPERAMIDE]	Not Active
OCCOCCN1CCN(C2=Nc3ccccc3Sc3ccccc32)CC1 [QUETIAPINE]	Not Active
COC(=O)[C@H]1[C@H]2C[C@@H]3c4[nH]c5cc(OC)ccc5c4CCN3C[C@H]2C[C@@H](OC(=O)c2cc(OC)c(OC)c(OC)c2)[C@@H]1OC [RESERPINE]	Not Active
O=C(O)c1ccccc1O [SALICYLIC ACID]	Not Active
C[S+]([O-])c1ccc(-c2nc(-c3ccncc3)c(-c3ccc(F)cc3)[nH]2)cc1 (configuration not stated) [SB-203580]	Not Active

Same assay, conditions: read-out: IC50

Compound	IC50 [µM]
Clc1ccc(COC(Cn2ccnc2)c2ccc(Cl)cc2Cl)c(Cl)c1 (configuration not stated) [MICONAZOLE]	24

Same assay, conditions: read-out: Ki

Compound	Ki [µM]
Clc1ccc(COC(Cn2ccnc2)c2ccc(Cl)cc2Cl)c(Cl)c1 (configuration not stated) [MICONAZOLE]	7.78

Target: Cytochrome P450 2E1 (Homo sapiens, UniProt P05181); further: in other assays of this panel Not Active means under 50% inhibition at 10 µM
Experiment: not given
Conditions: bti-tn-5b1-4

Cytochrome P450 2E1, sequence (P05181 whole entry): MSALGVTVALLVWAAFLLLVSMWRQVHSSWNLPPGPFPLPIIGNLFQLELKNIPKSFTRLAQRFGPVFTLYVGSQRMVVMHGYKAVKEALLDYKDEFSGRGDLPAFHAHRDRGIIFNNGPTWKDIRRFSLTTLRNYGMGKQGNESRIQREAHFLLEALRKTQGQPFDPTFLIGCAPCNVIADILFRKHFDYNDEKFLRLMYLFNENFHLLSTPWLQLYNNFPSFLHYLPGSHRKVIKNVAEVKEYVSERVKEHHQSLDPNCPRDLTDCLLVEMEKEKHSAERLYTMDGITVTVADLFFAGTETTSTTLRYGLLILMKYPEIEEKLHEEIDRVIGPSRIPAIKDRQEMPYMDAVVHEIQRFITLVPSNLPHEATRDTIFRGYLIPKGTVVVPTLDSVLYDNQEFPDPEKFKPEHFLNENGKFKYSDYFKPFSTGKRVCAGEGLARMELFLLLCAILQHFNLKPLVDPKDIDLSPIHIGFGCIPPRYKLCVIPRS

Compound	IC50	Ki
CCCCC(=O)N(Cc1ccc(-c2ccccc2-c2nnn[nH]2)cc1)[C@H](C(=O)O)C(C)C	Not Active	Not Active
O=C(O)COc1ccc(C(=O)c2cccs2)c(Cl)c1Cl	Not Active	Not Active
CN1[C@@H]2CC[C@H]1C[C@@H](OC(c1ccccc1)c1ccccc1)C2 [BENZTROPINE]	Not Active	Not Active
C[C@@](Cc1ccc(O)c(O)c1)(NN)C(=O)O.O [CARBIDOPA]	Not Active	Not Active
CN1CCN(C2=Nc3cc(Cl)ccc3Nc3ccccc32)CC1 [CLOZAPINE]	Not Active	Not Active
CC(C)NC[C@@H](O)COc1cccc2ccccc12 [DEXPROPRANOLOL]	Not Active	Not Active
CC(C)NC[C@H](O)COc1cccc2ccccc12 [LEVOPROPRANOLOL]	Not Active	Not Active
O=C(O)CCCCC1CCSS1 (stereo not drawn) [LIPOIC ACID, ALPHA]	Not Active	Not Active
CN(C)C(=O)C(CCN1CCC(O)(c2ccc(Cl)cc2)CC1)(c1ccccc1)c1ccccc1 [LOPERAMIDE]	Not Active	Not Active
Clc1ccc(COC(Cn2ccnc2)c2ccc(Cl)cc2Cl)c(Cl)c1 (configuration not stated) [MICONAZOLE]	Not Active	Not Active
OCCOCCN1CCN(C2=Nc3ccccc3Sc3ccccc32)CC1 [QUETIAPINE]	Not Active	Not Active
COC(=O)[C@H]1[C@H]2C[C@@H]3c4[nH]c5cc(OC)ccc5c4CCN3C[C@H]2C[C@@H](OC(=O)c2cc(OC)c(OC)c(OC)c2)[C@@H]1OC [RESERPINE]	Not Active	Not Active
O=C(O)c1ccccc1O [SALICYLIC ACID]	Not Active	Not Active
C[S+]([O-])c1ccc(-c2nc(-c3ccncc3)c(-c3ccc(F)cc3)[nH]2)cc1 (configuration not stated) [SB-203580]	Not Active	Not Active

Target: Sigma non-opioid intracellular receptor 1 (Homo sapiens, UniProt Q99720)
Experiment: DRUGMATRIX: Sigma1 radioligand binding (ligand: [3H] Haloperidol)
Format: cell membranes, Jurkat, Membrane
Conditions: Not Active = under 50% inhibition at 10 µM; read-out: IC50

Sigma non-opioid intracellular receptor 1, sequence (Q99720 whole entry): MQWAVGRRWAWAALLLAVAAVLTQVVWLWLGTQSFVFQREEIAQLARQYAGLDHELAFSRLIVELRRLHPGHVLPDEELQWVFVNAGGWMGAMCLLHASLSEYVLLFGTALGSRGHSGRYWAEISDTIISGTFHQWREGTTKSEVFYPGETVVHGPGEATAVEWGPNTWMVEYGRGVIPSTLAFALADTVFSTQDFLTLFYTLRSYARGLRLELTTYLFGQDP

Compound	IC50 [µM]
CC(C)NC[C@@H](O)COc1cccc2ccccc12 [DEXPROPRANOLOL]	3.97
CC(C)NC[C@H](O)COc1cccc2ccccc12 [LEVOPROPRANOLOL]	6.67
CN(C)C(=O)C(CCN1CCC(O)(c2ccc(Cl)cc2)CC1)(c1ccccc1)c1ccccc1 [LOPERAMIDE]	0.628
OCCOCCN1CCN(C2=Nc3ccccc3Sc3ccccc32)CC1 [QUETIAPINE]	2.29

Same assay, conditions: Not Active = under 50% inhibition at 10 µM; read-out: Ki

Compound	Ki [µM]
CC(C)NC[C@@H](O)COc1cccc2ccccc12 [DEXPROPRANOLOL]	1.67
CC(C)NC[C@H](O)COc1cccc2ccccc12 [LEVOPROPRANOLOL]	2.8
CN(C)C(=O)C(CCN1CCC(O)(c2ccc(Cl)cc2)CC1)(c1ccccc1)c1ccccc1 [LOPERAMIDE]	0.264
OCCOCCN1CCN(C2=Nc3ccccc3Sc3ccccc32)CC1 [QUETIAPINE]	0.964

Same assay, conditions: jurkat; Not Active = under 50% inhibition at 10 µM

Compound	IC50
CCCCC(=O)N(Cc1ccc(-c2ccccc2-c2nnn[nH]2)cc1)[C@H](C(=O)O)C(C)C	Not Active
O=C(O)COc1ccc(C(=O)c2cccs2)c(Cl)c1Cl	Not Active
C[C@@](Cc1ccc(O)c(O)c1)(NN)C(=O)O.O [CARBIDOPA]	Not Active
CN1CCN(C2=Nc3cc(Cl)ccc3Nc3ccccc32)CC1 [CLOZAPINE]	Not Active
O=C(O)CCCCC1CCSS1 (stereo not drawn) [LIPOIC ACID, ALPHA]	Not Active
Clc1ccc(COC(Cn2ccnc2)c2ccc(Cl)cc2Cl)c(Cl)c1 (configuration not stated) [MICONAZOLE]	Not Active
COC(=O)[C@H]1[C@H]2C[C@@H]3c4[nH]c5cc(OC)ccc5c4CCN3C[C@H]2C[C@@H](OC(=O)c2cc(OC)c(OC)c(OC)c2)[C@@H]1OC [RESERPINE]	Not Active
O=C(O)c1ccccc1O [SALICYLIC ACID]	Not Active
C[S+]([O-])c1ccc(-c2nc(-c3ccncc3)c(-c3ccc(F)cc3)[nH]2)cc1 (configuration not stated) [SB-203580]	Not Active
